Reference: patent US10092493B2, “Composition of skin external application for anti-aging” (AMOREPACIFIC CORPORATION, priority 2005, dated 2018)

Legend:
[1] = test system: Type I Collagenase (MMP-1); experiment: Inhibition of type I collagenase (MMP-1) biosynthesis after UV-A irradiation, test substances (ELISA); format: cell-based; settings: new born human fibroblasts, UV-A 15 J/cm^2, 10 μM or 10 ppm, UV negative control = 100; for Type I collagenase biosynthesis (%), UV-A + TNF-α treated group: plus TNF-α 10 ng/ml
Procedure: To describe the experiment method in detail, human fibroblasts isolated from the skin of a new born baby were cultured in a 48-well plate type incubator at a concentration of 10^4. After 24 hours, the plate was irradiated by UV-A at 15 J/cm^2. […] At the second day of cultivation, the supernatants were harvested and subjected to ELISA (AP biotech RPN2610) to determine the amount of produced type I collagenase. As the positive control, Wy-14,643 and retinoic acid (RA) were used.

MMP-9 = experiment: Inhibition of MMP-9 biosynthesis after UV irradiation (gelatin zymography); format: cell-based; settings: human keratinocytes, UV-B 30 mJ/cm^2, 10 ppm test substance, 2 days; UV control = 100
Procedure: (§1) After 24 hours, the plate was irradiated by UV-B at 30 mJ/cm^2. The media were exchanged with new medium containing 10 ppm of each test substance. After 2 days of cultivation, each supernatant was harvested and subjected to the zymography using gelatine gel to obtain produced MMP-2 and MMP-9, quantities of which were then measured by a densitometer.

[2] = target: T1, PPAR-α (Peroxisome Proliferator Activated Receptor-alpha) (Homo sapiens, UniProt Q07869); experiment: Activation of PPAR-α, luciferase reporter in CV-1 cells; format: cell-based; settings: 24 hours, negative control and non-treated group = 1.0
T1 construct: expressed in transfected cells; host or cells: CV-1 monkey kidney epithelial cells (ATCC CCL 70)
T1 sequence (Q07869 1-468): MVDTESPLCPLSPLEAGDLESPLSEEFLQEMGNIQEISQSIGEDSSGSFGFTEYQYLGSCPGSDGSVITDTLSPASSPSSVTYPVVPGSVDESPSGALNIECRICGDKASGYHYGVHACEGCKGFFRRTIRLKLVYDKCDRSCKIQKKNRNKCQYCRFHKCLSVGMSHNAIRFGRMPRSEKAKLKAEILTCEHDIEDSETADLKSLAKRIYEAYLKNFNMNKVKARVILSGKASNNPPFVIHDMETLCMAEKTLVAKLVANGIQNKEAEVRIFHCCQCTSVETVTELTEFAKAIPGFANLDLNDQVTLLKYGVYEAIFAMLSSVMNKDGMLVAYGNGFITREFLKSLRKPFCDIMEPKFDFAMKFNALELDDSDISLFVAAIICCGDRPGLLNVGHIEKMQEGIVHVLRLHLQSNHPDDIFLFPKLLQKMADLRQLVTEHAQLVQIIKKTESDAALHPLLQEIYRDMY
Procedure: Monkey kidney epithelial cell line CV-1 (ATCC CCL 70) was subcultured in a DMEM medium containing 10% fetal bovine serum treated with charcol/dextran, which was a phenol red-free medium to remove the effect by estrogen of phenol red.
CV-1 cells were distributed in a 24-well plate type incubator at a concentration of 5×10^4. After 24 hours cultivation, the 3 different plasmids were transient transfected. After 24 hours cultivation, the plate was washed with 1×PBS (Phosphate Buffered Saline) and treated with ligand candidates at various concentrations. After 24 hours cultivation, the plate was washed with 1×PBS and the cells were lyzed with 1×PLB (Passive Lysis Buffer) and measured for luciferase activity using Dual-Luciferase® Reporter Assay System kit.

pro-collagen = experiment: Biosynthesis of collagen (pro-collagen ELISA) in fibroblasts; format: cell-based, Human; settings: 48 hours, un-treated control = 100
Procedure: Human fibroblasts were cultured in a 48-well plate type incubator at a concentration of 10^4. The media were exchanged with new medium (theanine: 1, 10, 100 um) containing each test substance of Table 7 at a concentration of 0.001 μM, 0.01 μM, 0.1 μM, 0.5 μM and 2 μM. After 48 hours of cultivation, each supernatant was harvested and subjected to ELISA (Takara MK101) to measure the amount of produced pro-collagen.
Also, in order to examine the synergic effect of theanine on collagen biosynthesis, theanine 10 μM was added to catechin at different 4 concentrations and the result is shown in Table 8.

[3] = test system: Tumor Necrosis Factor alpha (TNF-α); experiment: Inhibition of TNF-α biosynthesis after UV irradiation (ELISA); format: cell-based; settings: human keratinocytes, UV-B 30 mJ/cm^2, 10 μM (10 ppm of extract), 6 to 24 hours; UV control = 100
Procedure: Human keratinocytes were cultured in a 12-well plate type incubator at a concentration of 10^4. The plate was irradiated by UV-B at 30 mJ/cm^2. The media were exchanged with new medium containing 10 μM of each test substance (10 ppm of extract). After 6 to 24 hours of cultivation, the cells were harvested and subjected to ELISA (Pharmingen 555212) to determine the amount of produced tumor necrosis factor α (TNF-α). As the positive control, Wy-14,643 was used.

MMP-2 = experiment: Inhibition of MMP-2 biosynthesis after UV irradiation (gelatin zymography); format: cell-based; settings: human keratinocytes, UV-B 30 mJ/cm^2, 10 ppm test substance, 2 days; UV control = 100
Procedure: as §1

laminin 10/11 = experiment: Biosynthesis of laminin 10/11 in keratinocytes (Western Blot); format: cell-based; settings: human keratinocytes, 10 ppm, 24 hours; control = 100
Procedure: Human keratinocytes were cultured in a 24-well plate type incubator at a concentration of 5×10^4. The media were exchanged with new medium containing 10 ppm of each test substance. After 24 hours of cultivation, each supernatant was harvested and subjected to the Western Blot method to measure the amount of produced laminin 10/11.

type IV collagen = experiment: Biosynthesis of type IV collagen in keratinocytes (Dot Blot); format: cell-based; settings: human keratinocytes, 10 ppm, 24 hours; control = 100
Procedure: The media were exchanged with new medium containing 10 ppm of each test substance. After 24 hours of cultivation, each supernatant was harvested and subjected to the Dot Blot method to measure the amount of produced type IV collagen.

type VII collagen = experiment: Biosynthesis of type VII collagen in fibroblasts (Dot Blot); format: cell-based; settings: human fibroblasts, 10 ppm, 24 hours; control = 100
Procedure: The media were exchanged with new medium containing 10 ppm of each test substance. After 24 hours of cultivation, each supernatant was harvested and subjected to the Dot Blot method to measure the amount of produced type VII collagen.

[4] = test system: Type I Collagenase (MMP-1); experiment: Type I collagenase (MMP-1) biosynthesis with UV-A, TNF-α and antibody against TNF-α (ELISA); format: cell-based, Human
Procedure: Human fibroblasts isolated from the skin of new born baby were cultured in a 48-well plate type incubator at a concentration of 10^4. after 24 hours, the plate was irradiated by UV-A at 15 J/cm^2 and antibody against tumor necrosis factor alpha was added thereto in a concentration of 1 ug/ml. At the second day of cultivation, the supernatants were harvested and subjected to ELISA (AP biotech RPN2610) to determine the amount of produced type I collagenase. The result is shown in Table 15 as comparative values, referred to 100 of control which was not treated.

PPAR-α activity ([2]; 10 μM) | PPAR-α activity ([2]; 100 μM) | type I collagenase, UV-A irradiated group, column headed TNF-α treated group ([4]; UV-A 15 J/cm^2, antibody against TNF-α 1 ug/ml, untreated control = 100 (UV-A without antibody 210)) | type I collagenase, TNF-α treated group, No-Antibody treated group ([4]; new born human fibroblasts, untreated control = 100) | Compound | Type I collagenase biosynthesis (%), UV-A + TNF-α treated group [1] [%] | Type I collagenase biosynthesis (%), UV-A irradiated group [1] [%] | MMP-9 (%) (MMP-9) | Collagen biosynthesis (pro-collagen; 0.001 μM) | Collagen biosynthesis (pro-collagen; 0.01 μM) | Collagen biosynthesis (pro-collagen; 0.1 μM) | Collagen biosynthesis (pro-collagen; 0.5 μM) | Collagen biosynthesis (pro-collagen; 2 μM) | TNF-α biosynthesis (%) [3] [%] | MMP-2 (%) (MMP-2) | laminin 10/11 biosynthesis (%) (laminin 10/11) | Type IV collagen biosynthesis (%) (type IV collagen) | type VII collagen biosynthesis (%) (type VII collagen) | Collagen biosynthesis (pro-collagen; 10 μM) | Collagen biosynthesis (pro-collagen; 100 μM)
1.0 | 1.5 | – | – | O=C(O[C@@H]1Cc2c(O)cc(O)cc2O[C@@H]1c1cc(O)c(O)c(O)c1)c1cc(O)c(O)c(O)c1 [EGCG, epigallocatechin gallate] | 88 | 42 | 56 | 101.4 | 154.6 | 133.8 | 155.8 | 78.4 | 35 | 52 | 137 | 138 | 127 | – | –
– | – | 134 | 250 | TNF-α | – | – | – | – | – | – | – | – | – | – | – | – | – | – | –

More lines, now with the values behind:

Compound | PPAR-α activity ([2]; 10 μM) | PPAR-α activity ([2]; 100 μM) | type I collagenase, UV-A irradiated group, column headed TNF-α treated group ([4]; UV-A 15 J/cm^2, antibody against TNF-α 1 ug/ml, untreated control = 100 (UV-A without antibody 210)) | type I collagenase, TNF-α treated group, No-Antibody treated group ([4]; new born human fibroblasts, untreated control = 100) | Type I collagenase biosynthesis (%), UV-A + TNF-α treated group [1] [%] | Type I collagenase biosynthesis (%), UV-A irradiated group [1] [%] | MMP-9 (%) (MMP-9) | Collagen biosynthesis (pro-collagen; 0.001 μM) | Collagen biosynthesis (pro-collagen; 0.01 μM) | Collagen biosynthesis (pro-collagen; 0.1 μM) | Collagen biosynthesis (pro-collagen; 0.5 μM) | Collagen biosynthesis (pro-collagen; 2 μM) | TNF-α biosynthesis (%) [3] [%] | MMP-2 (%) (MMP-2) | laminin 10/11 biosynthesis (%) (laminin 10/11) | Type IV collagen biosynthesis (%) (type IV collagen) | type VII collagen biosynthesis (%) (type VII collagen) | Collagen biosynthesis (pro-collagen; 10 μM) | Collagen biosynthesis (pro-collagen; 100 μM)
O=C(O[C@@H]1Cc2c(O)cc(O)cc2O[C@H]1c1ccc(O)c(O)c1)c1cc(O)c(O)c(O)c1 [CG, catechin gallate] | 1.2 | 1.6 | – | – | 89 | 53 | 55 | 104.3 | 118.5 | 124.9 | 118.9 | 80.3 | 37 | 53 | 129 | 134 | 124 | – | –
O=C(O[C@@H]1Cc2c(O)cc(O)cc2O[C@@H]1c1ccc(O)c(O)c1)c1cc(O)c(O)c(O)c1 [(−) ECG, epicatechin gallate] | 1.1 | 1.6 | – | – | 87 | 45 | – | 100.5 | 181.7 | 165.3 | 124.5 | 77.8 | 32 | – | – | – | – | – | –
O=C(O[C@@H]1Cc2c(O)cc(O)cc2O[C@H]1c1cc(O)c(O)c(O)c1)c1cc(O)c(O)c(O)c1 [GCG, gallocatechin gallate] | – | 2.3 | – | – | 86 | 43 | 56 | 98.9 | 138.3 | 147.0 | 157.1 | 75.2 | 27 | 53 | 131 | 135 | 121 | – | –
CCNC(=O)CC[C@H](N)C(=O)O [Theanine] | 1.8 | 1.9 | – | – | 95 | 60 | – | – | – | – | – | – | 30 | – | – | – | – | 132.1 | 167.5
O=c1c(O)c(-c2cc(O)c(O)c(O)c2)oc2cc(O)cc(O)c12 [Myricetin, myricetin] | 1.7 | 1.6 | – | – | 97 | 52 | 55 | – | – | – | – | – | 36 | 51 | 132 | 139 | 125 | – | –
